US5935954A, “Compounds with improved multi-drug resistance activity” (Vertex Pharmaceuticals Incorporated, priority 1997, dated 1999)

What follows are molecules tested against FKBP12 (Homo sapiens, UniProt P62942) (assay: FKBP12 binding assay (inhibition of rotomase activity)). Settings: apparent Ki.
Assay type: biochemical
Text: Preferably, the assay measures inhibition of FKBP12 rotomase activity. Such an assay has also been described by M. W. Harding et al., supra and by J. J. Siekierka et al., supra. In this assay the isomerization of an artificial substrate--N-succinyl-Ala-Ala-Pro-Phe-p-nitroanilide--is followed spectrophotometrically. The assay includes the cis form of the substrate, FKBP12, the inhibitor and chymotrypsin. Chymotrypsin is able to cleave p-nitroanilide from the trans form of the substrate, but not the cis form. Release of p-nitroanilide is measured.
The inhibition of FKBP rotomase activity by the preferred FKBP12 binding compounds present in the compositions of this invention was assayed. In this assay various quantities of FKBP12 binding compound (0nM-10 μM) were added to cis-N-succinyl-Ala-Ala-Pro-Phe-p-nitroanilide in the presence of FKBP12 and chymotrypsin. FKBP12 converts the cis form of the substrate to the trans form. This allows chymotrypsin to cleave p-nitroanilide from the substrate. Release of p-nitroanilide was measured spectrophotometrically. This assay allowed me to measure the change in the first order rate constant of the rotomase activity as a function of FKBP12 binding compound concentration and yielded an estimate of apparent Ki.

Sequence of FKBP12 (P62942 whole entry, species assumed): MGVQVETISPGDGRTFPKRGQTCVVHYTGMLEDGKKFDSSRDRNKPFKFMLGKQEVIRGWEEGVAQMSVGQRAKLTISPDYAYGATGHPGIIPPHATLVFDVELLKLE

Row | SMILES | Ki
1 | CCCC/C=C(/c1cccnc1)c1cccc([C@@H](CCN2CCOCC2)OC(=O)[C@@H]2CCCCN2C(=O)C(=O)c2cc(OC)c(OC)c(OC)c2)c1 [Compound 34] | 6 nM
2 | CCCC/C=C(/c1cccnc1)c1cccc([C@H](CCN2CCOCC2)OC(=O)[C@@H]2CCCCN2C(=O)C(=O)c2cc(OC)c(OC)c(OC)c2)c1 [Compound 35] | 380 nM
3 | COc1cc(C(=O)C(=O)N2CCCC[C@H]2C(=O)OC(CCCc2ccccc2)c2cccc(C(=CCCc3ccccc3)c3cccnc3)c2)cc(OC)c1OC (stereo partly shown) [Compound 3] | 300 nM
4 | CCOCc1cccc(COCC)c1-c1csc([C@H](CCN2CCOCC2)OC(=O)[C@@H]2CCCCN2C(=O)C(=O)C(C)(C)C)c1 [Compound 64] | 340 nM
5 | CCOCc1cc2ccccc2n1-c1cccc([C@@H](CCN2CCOCC2)OC(=O)[C@@H]2CCCCN2C(=O)C(=O)C2(C)CCCCC2)c1 [Compound 86] | 14 nM
6 | CCC/C=C(\c1cncc([C@@H](OC(=O)[C@@H]2CCCCN2C(=O)C(=O)c2ccc(F)cc2)/C(C)=C/[C@H]2CC[C@H](O)CC2)c1)C1CCCCC1 [Compound 42] | 2100 nM
7 | C=CCC/C=C(/c1cccnc1)c1ccc([C@H](CCN2CCOCC2)OC(=O)[C@@H]2CCCCN2C(=O)C(=O)c2cc(COC)ccc2C)s1 [Compound 101] | 500 nM
8 | CCC/C=C(\c1cncc([C@@H](CCN2CCOCC2)OC(=O)[C@@H]2CCCCN2C(=O)C(=O)[C@@H]2C[C@H](C(C)(C)OC)CC[C@H]2C)c1)C(C)C [Compound 129] | 1200 nM
9 | CCOc1ccc(OCC)c(-c2cccc(C(CCCc3ccccc3)OC(=O)[C@@H]3CCCCN3C(=O)C(=O)c3cc(OC)c(OC)c(OC)c3)c2)c1 (stereo partly shown) [Compound 4] | > 5000 nM
10 | COC/C=C(\c1cncc([C@@H](CCN2CCOCC2)OC(=O)[C@@H]2CCCCN2C(=O)C(=O)C(C)(C)C(C)C)c1)C(C)C [Compound 115] | 44 nM
11 | CCCOc1ccc(OCCC)c(-c2cncc([C@H](CCCc3ccccc3)OC(=O)[C@@H]3CCCCN3C(=O)C(=O)c3cc(OC)c(OC)c(OC)c3)c2)c1 [Compound 23] | 2500 nM
12 | CCOCc1cccc(COCC)c1-c1ccc([C@H](CCN2CCOCC2)OC(=O)[C@@H]2CCCCN2C(=O)C(=O)CC(C)C)s1 [Compound 84] | 2000 nM
13 | CCOc1ccc(OCC)c(-c2cccc([C@H](CCCc3ccccc3)OC(=O)[C@@H]3CCCCN3C(=O)C(=O)c3cc(OC)c(OC)c(OC)c3)c2)c1 [Compound 7] | > 10000 nM
14 | CCOc1ccc(OCC)c(-c2cncc([C@H](CCCc3ccccc3)OC(=O)[C@@H]3CCCCN3C(=O)C(=O)c3ccc(OC)c(OC)c3)c2)c1 [Compound 12] | 30 nM
15 | CCOc1ccccc1-c1cncc([C@H](CCCc2ccccc2)OC(=O)[C@@H]2CCCCN2C(=O)C(=O)c2cc(OC)c(OC)c(OC)c2)c1 [Compound 19] | 27 nM
16 | COC/C=C(\c1cncc([C@H](OC(=O)[C@@H]2CCCCN2C(=O)C(=O)CC(C)C)/C(C)=C/[C@H]2CC[C@H](O)CC2)c1)C1CCCCC1 [Compound 60] | 57 nM
17 | CCCCc1ccc(C)n1-c1cccc([C@@H](CCN2CCOCC2)OC(=O)[C@@H]2CCCCN2C(=O)C(=O)[C@@H]2C[C@H](OCC)CC[C@H]2C)c1 [Compound 121] | 85 nM
18 | C=CCC/C=C(\c1ccc([C@@H](CCN2CCOCC2)OC(=O)[C@@H]2CCCCN2C(=O)C(=O)CC(C)C)s1)C1CCOCC1 [Compound 66] | 55 nM
19 | C=CCC/C=C(\c1ccc([C@@H](CCN2CCOCC2)OC(=O)[C@@H]2CCCCN2C(=O)C(=O)C(C)(C)C)s1)C1CCOCC1 [Compound 70] | 45 nM
20 | CCC/C=C(\c1cccnc1)c1cccc([C@H](CCN2CCOCC2)OC(=O)[C@@H]2CCCCN2C(=O)C(=O)c2cc(OC)c(OC)c(OC)c2)c1 [Compound 31] | 130 nM
21 | C=CCC/C=C(/c1cccnc1)c1ccc([C@H](OC(=O)[C@@H]2CCCCN2C(=O)C(=O)C(C)(C)C)/C(C)=C/C2CCN(C)CC2)s1 [Compound 53] | 70 nM
22 | CCC/C=C(\c1cncc([C@H](OC(=O)[C@@H]2CCCCN2C(=O)C(=O)C(C)(C)C(C)C)/C(C)=C/c2ccncc2)c1)C1CCCCC1 [Compound 98] | 62 nM
23 | COCc1cccc(COC)c1-c1cncc([C@H](OC(=O)[C@@H]2CCCCN2C(=O)C(=O)c2ccco2)/C(C)=C/[C@H]2CC[C@H](O)CC2)c1 [Compound 41] | 67 nM
24 | COc1cc(C(=O)C(=O)N2CCCC[C@H]2C(=O)O[C@@H](CCCc2ccccc2)c2cncc(-c3c(OC)cccc3OC)c2)cc(OC)c1OC [Compound 25] | 30 nM
25 | CCC/C=C(\c1cncc([C@@H](CCN2CCOCC2)OC(=O)[C@@H]2CCCCN2C(=O)C(=O)[C@@H]2CCCC[C@H]2C)c1)C(C)C [Compound 128] | 41 nM

Now from value to molecule:

Row | Ki | SMILES
26 | 225 nM | C=CCC/C=C(/c1cccnc1)c1ccc([C@H](OC(=O)[C@@H]2CCCCN2C(=O)C(=O)CC(C)C)/C(C)=C/C2CCN(C)CC2)s1 [Compound 72]
27 | 44 nM | CCOCc1cccc(COCC)c1-c1ccc([C@@H](CCN2CCOCC2)OC(=O)[C@@H]2CCCCN2C(=O)C(=O)C(C)(C)C(C)C)s1 [Compound 93]
28 | 7 nM | COc1cc(C(=O)C(=O)N2CCCC[C@H]2C(=O)O[C@H](CCCc2ccccc2)c2cccc(/C(=C\CCc3ccccc3)c3ccc[n+]([O-])c3)c2)cc(OC)c1OC [Compound 9]
29 | 120 nM | COC/C=C(\c1cncc([C@@H](OC(=O)[C@@H]2CCCCN2C(=O)C(=O)c2ccco2)/C(C)=C/[C@H]2CC[C@H](O)CC2)c1)C1CCCCC1 [Compound 48]
30 | 1 nM | C=CCC/C=C(/c1cccnc1)c1ccc([C@@H](CCN2CCOCC2)OC(=O)[C@@H]2CCCCN2C(=O)C(=O)C2(C)CCCCC2)s1 [Compound 85]
31 | 130 nM | COC/C=C(\c1cncc([C@H](CCN2CCOCC2)OC(=O)[C@@H]2CCCCN2C(=O)C(=O)C(C)(C)C(C)C)c1)C(C)C [Compound 116]
32 | > 10000 nM | CCOCc1cccc(COCC)c1-c1csc(C(CCN2CCOCC2)OC(=O)[C@@H]2CCCCN2C(=O)C(=O)C(C)(C)COC)c1 (stereo partly shown) [Compound 50]
33 | 1100 nM | CCC/C(=C/COC)c1cncc(C(CCN2CCOCC2)OC(=O)[C@@H]2CCCCN2C(=O)C(=O)[C@@H]2C[C@H](OCC)CC[C@H]2C)c1 (stereo partly shown) [Compound 125]
34 | > 5000 nM | CCOCc1cccc(COCC)c1-c1cncc(C(OC(=O)[C@@H]2CCCCN2C(=O)C(=O)C2CCOCC2)/C(C)=C/c2ccncc2)c1 (stereo partly shown) [Compound 68]
35 | 4000 nM | COc1cc(C(=O)C(=O)N2CCCC[C@H]2C(=O)O[C@@H](CCCc2ccccc2)c2cccc(/C(=C\CCc3ccccc3)c3cccnc3)c2)cc(OC)c1OC [Compound 5]
36 | 16 nM | CCOCc1cc2ccccc2n1-c1cccc([C@@H](CCN2CCOCC2)OC(=O)[C@@H]2CCCCN2C(=O)C(=O)C(C)(C)C(C)C)c1 [Compound 94]
37 | 80 nM | CCCCc1ccc(C)n1-c1cccc([C@@H](CCN2CCOCC2)OC(=O)[C@@H]2CCCCN2C(=O)C(=O)[C@@H]2CCCC[C@H]2C)c1 [Compound 120]
38 | 0.4 nM | CCOc1ccccc1-c1cncc([C@@H](CCCc2ccccc2)OC(=O)[C@@H]2CCCCN2C(=O)C(=O)c2cc(OC)c(OC)c(OC)c2)c1 [Compound 18]
39 | 700 nM | CCOCc1cccc(COCC)c1-c1ccc([C@@H](CCN2CCOCC2)OC(=O)[C@@H]2CCCCN2C(=O)C(=O)c2cc(COC)ccc2C)s1 [Compound 102]
40 | 745 nM | C=CCC/C=C(\c1ccc([C@H](CCN2CCOCC2)OC(=O)[C@@H]2CCCCN2C(=O)C(=O)CC(C)C)s1)C1CCOCC1 [Compound 69]
